Reference: patent publication US20060111378A1, “Substituted 2-anilinopyrimidines as cell-cycle-kinase or receptor-tyrosine-kinase inhibitors, their production and use as pharmaceutical agents” (priority 2004, published 2006)

How the values were obtained:
[1] = system: MCF7, hormone-independent human breast cancer cells; assay: Proliferation assay MCF7; format: cell-based; details: 96 h, 4 days, crystal violet
Excerpt: (§1) Cultivated human tumor cells (MCF7, hormone-independent human breast cancer cells, related to ATCC HTB22; NCI-H460, human non-small-cell lung cancer cells, ATCC HTB-177, DU 145, hormone-independent human prostate cancer cells, ATCC HTB-81; MaTu-MDR, hormone-independent, multiple pharmaceutical agent-resistant human breast cancer cells, EPO-GmbH, Berlin) were flattened out at a density of about 3000-5000 cells/measuring point, depending on the growth rate of the respective cells, in a 96-well multititer plate in 200 μl of the corresponding growth medium. After 24 hours, the cells of one plate (zero-point plate) were colored with crystal violet (see below), while the medium of the other plates was replaced by fresh culture medium (200 μl), to which the test substances were added in various concentrations (0 μm, as well as in the range of 0.01-30 μm; the final concentration of the solvent dimethyl sulfoxide was 0.5%). The cells were incubated for 4 days in the presence of test substances. The cell proliferation was determined by coloring the cells with crystal violet: the cells were fixed by adding 20 μl/measuring point of an 11% glutaric aldehyde solution for 15 minutes at room temperature. After three washing cycles of the fixed cells with water, the plates were dried at room temperature. The cells were colored by adding 100 μl/measuring point of a 0.1% crystal violet solution (the pH was set at 3 by adding acetic acid). After three washing cycles of the colored cells with water, the plates were dried at room temperature. The dye was dissolved by adding 100 μl/measuring point of a 10% acetic acid solution. The extinction was determined by photometry at a wavelength of 595 nm. The change of cell growth, in percent, was calculated by normalization of the measured values to the extinction values of the zero-point plate (=0%) and the extinction of the untreated (0 μm) cells (=100%).

[2] = system: DU 145, hormone-independent human prostate cancer cells; assay: Proliferation assay DU145; format: cell-based; details: DU-145, 96 h, 4 days, crystal violet
Excerpt: as §1

CDK1/CycB = biological target: T1, CDK1/CycB (Homo sapiens, UniProt P06493); assay: CDK1/CycB kinase assay; format: biochemical; details: histone IIIS substrate, 0.5 μm ATP
T1 construct: GST; purchased ProQinase GmbH, Freiburg; host or cells: baculovirus-infected insect cells (Sf9)
Experimental: Recombinant CDK1- and CycB-GST-fusion proteins, purified from baculovirus-infected insect cells (Sf9), were purchased from ProQinase GmbH, Freiburg. Histone IIIS, used as a kinase substrate, is available commercially from the Sigma Company.
(§2) CDK1/CycB (200 ng/measuring point) was incubated for 10 minutes at 22° C. in the presence of various concentrations of test substances (0 μm, as well as within the range of 0.01-100 μm) in assay buffer [50 mmol of tris/HCl, pH 8.0, 10 mmol of MgCl2, 0.1 mmol of Na ortho-vanadate, 1.0 mmol of dithiothreitol, 0.5 μm of adenosine triphosphate (ATP), 10 μg/measuring point of histone IIIS, 0.2 μCi/measuring point of 33P-gamma ATP, 0.05% NP40, 1.25% dimethyl sulfoxide]. The reaction was stopped by adding EDTA solution (250 mmol, pH 8.0, 15 μl/measuring point).
(§3) From each reaction batch, 15 μl was applied to P30 filter strips (Wallac Company), and non-incorporated 33P-ATP was removed by subjecting the filter strips to three washing cycles for 10 minutes each in 0.5% phosphoric acid. After the filter strips were dried for one hour at 70° C., the filter strips were covered with scintillator strips (MeltiLex™ A, Wallac Company) and baked for one hour at 90° C. The amount of incorporated 33P (substrate phosphorylation) was determined by scintillation measurement in a gamma-radiation measuring device (Wallac).

CDK2/CycE = biological target: T2, CDK2/CycE (Homo sapiens, UniProt P24941); assay: CDK2/CycE kinase assay; format: biochemical; details: histone IIIS substrate, 0.5 μm ATP
T2 construct: GST; purchased ProQinase GmbH, Freiburg; host or cells: baculovirus-infected insect cells (Sf9)
Experimental: Recombinant CDK2- and CycE-GST-fusion proteins, purified from baculovirus-infected insect cells (Sf9), were purchased by ProQinase GmbH, Freiburg. Histone IIIs, which was used as a kinase substrate, was purchased by the Sigma Company.
as §2, with “CDK2/CycE (50” for “CDK1/CycB (200”, “^33P-gamma” for “33P-gamma”, “12.5%” for “1.25%”
as §3, with “^33P-ATP” for “33P-ATP”, “^33P” for “33P”

[3] = biological target: T3, VEGF receptor tyrosine kinase-2 (Homo sapiens, UniProt P35968); assay: VEGF receptor-2 kinase assay; format: biochemical; details: poly-(Glu4Tyr) substrate, 8 μmol ATP; read-out: VEGF-R2 IC50
T3 construct: GST; made in house; host or cells: baculovirus-infected insect cells (Sf9)
Experimental: VEGF Receptor-2 Kinase Assay
Recombinant VEGF receptor tyrosine kinase-2 was purified as a GST fusion protein from baculovirus-infected insect cells (Sf9). Poly-(Glu4Tyr), which was used as a kinase substrate, was purchased by the Sigma Company. VEGF receptor tyrosine kinase (90 ng/measuring point) was incubated for 10 minutes at 22° C. in the presence of various concentrations of test substances (0 μm, as well as within the range of 0.001-30 μm) in 30 μl of assay buffer [40 mmol of Tris/HCl, pH 5.5, 10 mmol of MgCl2, 1 mmol of MnCl2, 3 μmol of Na ortho-vanadate, 1.0 mmol of dithiothreitol, 8 μmol of adenosine trisphosphate (ATP), 0.96 μg/measuring point of poly-(Glu4Tyr), 0.2 μCi/measuring point of 33P-gamma ATP, 1.4% dimethyl sulfoxide]. The reaction was stopped by adding EDTA solution (250 mmol, pH 8.0, 15 μl/measuring point).
as §3

MaTu-ADR = assay: Proliferation assay MaTu-ADR; format: cell-based; details: Homo sapiens, 96 h; MaTu-ADR cells, 4 days, crystal violet
Excerpt: as §1

Human Carboanhydrase-2 = Human Carboanhydrase-2 (Homo sapiens, UniProt P00918); assay: Carboanhydrase assay; format: biochemical; details: 4-nitrophenyl acetate hydrolysis, 60 minutes; read-out: Inhibition of Human Carboanhydrase-2 IC50
Experimental: 2 μl of the test compounds, dissolved in DMSO (100× the final concentration), in a concentration range of 0.03-10 μm (final), was pipetted as 4× determinations into the holes of a 96-hole microtiter plate. Holes that contained the solvent without test compounds were used as reference values (1. Holes without carboanhydrase for correction of the non-enzymatic hydrolysis of the substrate, and 2. Holes with carboanhydrase for determining the activity of the non-inhibited enzyme).
188 μl of assay buffer (10 mmol of Tris/HCl, pH 7.4, 80 mmol of NaCl), with or without 3 units/hole on carboanhydrase I or II, was pipetted into the holes of the microtiter plate.

[4] = system: NCI-H460, human non-small-cell lung cancer cells; assay: Proliferation assay H460; format: cell-based; details: NCI-H460, 96 h, 4 days, crystal violet
Excerpt: as §1

T3 sequence (P35968 20-1356): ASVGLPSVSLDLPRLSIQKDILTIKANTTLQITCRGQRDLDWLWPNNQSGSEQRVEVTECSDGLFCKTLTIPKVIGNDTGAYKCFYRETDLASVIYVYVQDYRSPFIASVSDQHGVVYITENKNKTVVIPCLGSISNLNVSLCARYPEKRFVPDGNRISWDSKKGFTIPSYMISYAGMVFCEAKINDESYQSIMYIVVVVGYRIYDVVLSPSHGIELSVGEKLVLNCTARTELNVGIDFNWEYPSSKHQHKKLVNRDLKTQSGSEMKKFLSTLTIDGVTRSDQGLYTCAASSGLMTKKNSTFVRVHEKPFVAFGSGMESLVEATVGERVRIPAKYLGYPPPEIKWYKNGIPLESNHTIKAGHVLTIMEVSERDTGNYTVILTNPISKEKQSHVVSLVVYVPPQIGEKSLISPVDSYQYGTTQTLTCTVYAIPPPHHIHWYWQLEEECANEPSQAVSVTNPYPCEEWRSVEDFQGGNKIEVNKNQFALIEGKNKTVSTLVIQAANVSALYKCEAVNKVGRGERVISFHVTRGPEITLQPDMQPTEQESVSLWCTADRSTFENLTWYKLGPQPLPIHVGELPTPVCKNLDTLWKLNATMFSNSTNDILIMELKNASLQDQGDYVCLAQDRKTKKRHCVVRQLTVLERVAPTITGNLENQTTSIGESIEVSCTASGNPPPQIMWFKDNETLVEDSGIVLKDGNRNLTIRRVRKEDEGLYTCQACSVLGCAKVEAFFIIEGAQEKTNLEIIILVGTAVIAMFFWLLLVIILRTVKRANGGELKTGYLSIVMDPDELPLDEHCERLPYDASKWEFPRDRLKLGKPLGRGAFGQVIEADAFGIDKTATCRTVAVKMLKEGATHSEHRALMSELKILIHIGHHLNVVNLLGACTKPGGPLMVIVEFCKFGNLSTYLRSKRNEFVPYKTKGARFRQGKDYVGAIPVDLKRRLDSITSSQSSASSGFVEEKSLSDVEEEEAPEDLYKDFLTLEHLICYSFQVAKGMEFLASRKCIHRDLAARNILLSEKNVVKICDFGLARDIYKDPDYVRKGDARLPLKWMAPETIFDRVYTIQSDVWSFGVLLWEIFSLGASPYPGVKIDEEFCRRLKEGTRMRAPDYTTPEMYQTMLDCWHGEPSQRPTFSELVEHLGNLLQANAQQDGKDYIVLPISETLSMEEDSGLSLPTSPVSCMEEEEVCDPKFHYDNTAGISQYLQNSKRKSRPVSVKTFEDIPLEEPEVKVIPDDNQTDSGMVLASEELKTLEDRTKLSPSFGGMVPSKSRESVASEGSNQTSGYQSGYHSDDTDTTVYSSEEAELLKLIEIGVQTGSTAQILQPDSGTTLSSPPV
T1 sequence (P06493 whole entry): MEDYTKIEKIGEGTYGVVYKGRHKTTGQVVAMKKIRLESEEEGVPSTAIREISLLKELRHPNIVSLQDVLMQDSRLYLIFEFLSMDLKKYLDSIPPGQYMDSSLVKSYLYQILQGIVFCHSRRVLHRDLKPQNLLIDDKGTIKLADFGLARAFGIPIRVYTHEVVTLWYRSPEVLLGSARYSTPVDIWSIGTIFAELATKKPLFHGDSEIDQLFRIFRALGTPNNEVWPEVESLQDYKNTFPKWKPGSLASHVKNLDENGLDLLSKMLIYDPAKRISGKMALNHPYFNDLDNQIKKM
T1 sequence (P14635 whole entry partner): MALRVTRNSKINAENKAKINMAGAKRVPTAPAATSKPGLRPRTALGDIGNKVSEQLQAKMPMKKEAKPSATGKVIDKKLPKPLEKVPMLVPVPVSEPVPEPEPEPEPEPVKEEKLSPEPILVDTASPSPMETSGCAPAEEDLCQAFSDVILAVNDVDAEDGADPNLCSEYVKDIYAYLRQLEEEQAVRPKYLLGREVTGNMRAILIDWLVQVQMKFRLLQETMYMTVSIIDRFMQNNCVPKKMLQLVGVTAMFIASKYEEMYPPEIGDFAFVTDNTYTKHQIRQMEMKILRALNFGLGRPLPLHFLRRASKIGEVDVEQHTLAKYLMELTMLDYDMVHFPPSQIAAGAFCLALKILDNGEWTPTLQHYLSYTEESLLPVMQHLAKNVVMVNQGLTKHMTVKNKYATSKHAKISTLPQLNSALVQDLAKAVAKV

SMILES	IC50 [1]	IC50 [2]	IC50 (CDK1/CycB)	IC50 (CDK2/CycE)	IC50 [3]	IC50 (MaTu-ADR)	IC50 (Human Carboanhydrase-2)	IC50 [4]
Cc1cc(Nc2ncc(Br)c(N[C@H](C)CO)n2)cc(C)c1S(N)(=O)=O [Example 1, 4-[5-Bromo-4-((R)-2-hydroxy-1-methyl-ethylamino)-pyrimidin-2-ylamino]-2,6-dimethyl-benzenesulfonamide]	0.6 µM	0.4 µM	0.015 µM	0.014 µM	0.018 µM	0.4 µM	> 10 µM	0.3 µM
Cc1cc(Nc2ncc(Br)c(N[C@H](C)C(C)(C)O)n2)cc(C)c1S(N)(=O)=O [Example 2]	< 0.1 µM	0.09 µM	0.003 µM	0.002 µM	0.02 µM	0.07 µM	> 10 µM	0.13 µM
Cc1cc(Nc2ncc(Br)c(N[C@H](C)[C@@H](C)O)n2)cc(C)c1S(N)(=O)=O [Example 3]	< 0.1 µM	0.07 µM	0.005 µM	0.006 µM	0.019 µM	0.04 µM	> 10 µM	0.05 µM
Cc1cc(Nc2ncc(Br)c(N[C@H](C)[C@@H](C)O)n2)cc(Cl)c1S(N)(=O)=O [Example 4]	0.12 µM	0.1 µM	0.005 µM	0.01 µM	0.13 µM	< 0.1 µM		< 0.1 µM
Cc1cc(Nc2ncc(Br)c(O[C@H](C)[C@@H](C)O)n2)cc(C)c1S(N)(=O)=O [Example 6, 4-[5-Bromo-4-((1R,2R)-2-hydroxy-1-methyl-propoxy)-pyrimidin-2-ylamino]-2,6-dimethyl-benzenesulfonamide]	0.05 µM	0.05 µM	0.008 µM	0.008 µM	0.039 µM	0.02 µM	> 10 µM	0.05 µM
Cc1cc(Nc2ncc(Br)c(O[C@H](C)[C@@H](C)O)n2)cc(Br)c1S(N)(=O)=O [Example 7]	0.12 µM	0.16 µM	0.012 µM	0.015 µM	0.056 µM	0.05 µM	6 µM	0.16 µM
C[C@@H](Nc1nc(Nc2ccc(S(N)(=O)=O)cc2)ncc1Br)C(C)(C)O [Example 271 from WO 02/096888, 4-[5-Bromo-4-((R)-2-hydroxy-1,2-dimethyl-propylamino)-pyrimidin-2-ylamino]-benzenesulfonamide, reference compound]	0.18 µM	0.15 µM	< 0.01 µM	< 0.01 µM	0.25 µM	< 0.1 µM	0.53 µM	0.2 µM
C[C@@H](O)[C@@H](C)Nc1nc(Nc2ccc(S(N)(=O)=O)cc2)ncc1Br [Example 275 from WO 02/096888, 4-[5-Bromo-4-((1R,2R)-2-hydroxy-1-methyl-propylamino)-pyrimidin-2-ylamino]-benzenesulfonamide, reference compound]	0.05 µM	0.07 µM	< 0.01 µM	< 0.01 µM	0.13 µM	0.02 µM	0.81 µM	0.04 µM
